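All cell lines were grown in 96-well plates and treated with compound for 48 hours. GI50 marks 50% less growth.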 Calls of active or inactive are those of the source. No stated cut-off is given here; in the data, active = GI50 up to about 1.1 µM and inactive = higher.
How the values were obtained:
Experiment in all cases: NCI anticancer screen, dose series, 48 h
CAKI-1 = system: CAKI-1
COLO 205 = system: COLO 205
HCC 2998 = system: HCC 2998
HCT-116 = system: HCT-116
HL-60 = system: HL-60
K562 = system: K562
MDA-MB-435 = system: MDA-MB-435
MOLT-4 = system: MOLT-4
NCI-H522 = system: NCI-H522
OVCAR-4 = system: OVCAR-4
SF-295 = system: SF-295
SK-MEL-2 = system: SK-MEL-2
SK-OV-3 = system: SK-OV-3
SNB-19 = system: SNB-19
SNB-75 = system: SNB-75
TK-10 = system: TK-10
Hs-578T = system: Hs-578T
SF-539 = system: SF-539

## O=C(c1ccccc1)c1ccc2[nH]c(-c3c(Cl)c(Cl)c(Cl)c(Cl)c3C(=O)Nc3ccco3)nc2c1
CAKI-1
  GI50: > 100 µM (inactive)
COLO 205
  GI50: 45.5 µM (inactive)
HCC 2998
  GI50: 15.4 µM (inactive)
HCT-116
  GI50: 34 µM (inactive)
HL-60
  GI50: 24.2 µM (inactive)
K562
  GI50: 16.6 µM (inactive)
MDA-MB-435
  GI50: 12.6 µM (inactive)
MOLT-4
  GI50: 18.6 µM (inactive)
NCI-H522
  GI50: 25.7 µM (inactive)
OVCAR-4
  GI50: 42.3 µM (inactive)
SF-295
  GI50: 23.6 µM (inactive)
SK-MEL-2
  GI50: 20.9 µM (inactive)
SK-OV-3
  GI50: > 100 µM (inactive)
SNB-19
  GI50: 99.8 µM (inactive)
SNB-75
  GI50: > 100 µM (inactive)
TK-10
  GI50: 39.7 µM (inactive)

## CC(NC(=O)OC(C)(C)C)C(=O)NC(Cc1ccccc1)C(=O)NCC(=O)Oc1c(Cl)c(Cl)c(Cl)c(Cl)c1Cl (centres undefined)
COLO 205
  GI50: 29.7 µM (inactive)
HCC 2998
  GI50: 15.3 µM (inactive)
HCT-116
  GI50: 19.6 µM (inactive)
HL-60
  GI50: 24.7 µM (inactive)
Hs-578T
  GI50: 37.5 µM (inactive)
K562
  GI50: 30.6 µM (inactive)
MOLT-4
  GI50: 23.2 µM (inactive)
SK-MEL-2
  GI50: 20.7 µM (inactive)
SNB-19
  GI50: 29.3 µM (inactive)
SNB-75
  GI50: 34.6 µM (inactive)
TK-10
  GI50: 27 µM (inactive)

## COc1ccc2c3c1OC1C(OC)(OC)CC4(C=C2)CN(C)CCC314 (centres undefined)
CAKI-1
  GI50: > 100 µM (inactive)
COLO 205
  GI50: > 100 µM (inactive)
HCC 2998
  GI50: > 100 µM (inactive)
HCT-116
  GI50: > 100 µM (inactive)
HL-60
  GI50: 20.3 µM (inactive)
K562
  GI50: 41.9 µM (inactive)
MDA-MB-435
  GI50: > 100 µM (inactive)
MOLT-4
  GI50: > 100 µM (inactive)
OVCAR-4
  GI50: > 100 µM (inactive)
SF-295
  GI50: > 100 µM (inactive)
SF-539
  GI50: > 100 µM (inactive)
SK-OV-3
  GI50: > 100 µM (inactive)
SNB-19
  GI50: > 100 µM (inactive)
SNB-75
  GI50: > 100 µM (inactive)
TK-10
  GI50: > 100 µM (inactive)

## Nc1nncc2[nH]nnc12
CAKI-1
  GI50: > 100 µM (inactive)
COLO 205
  GI50: > 100 µM (inactive)
HCT-116
  GI50: > 100 µM (inactive)
HL-60
  GI50: 12.8 µM (inactive)
Hs-578T
  GI50: > 100 µM (inactive)
K562
  GI50: 0.186 µM (active)
MDA-MB-435
  GI50: > 100 µM (inactive)
MOLT-4
  GI50: 17.4 µM (inactive)
SF-295
  GI50: > 100 µM (inactive)
SF-539
  GI50: > 100 µM (inactive)
SK-MEL-2
  GI50: > 100 µM (inactive)
SNB-19
  GI50: > 100 µM (inactive)
SNB-75
  GI50: > 100 µM (inactive)
TK-10
  GI50: > 100 µM (inactive)

## CCN1CN(c2ccccc2)C2(CCN(CCCSc3ccc(F)cc3)CC2)C1=O
CAKI-1
  GI50: 12 µM (inactive)
COLO 205
  GI50: 2.41 µM (inactive)
HCT-116
  GI50: 4.36 µM (inactive)
HL-60
  GI50: 10.8 µM (inactive)
K562
  GI50: 12.9 µM (inactive)
MDA-MB-435
  GI50: 12.8 µM (inactive)
MOLT-4
  GI50: 4.88 µM (inactive)
NCI-H522
  GI50: 15 µM (inactive)
SF-295
  GI50: 13 µM (inactive)
SF-539
  GI50: 9.4 µM (inactive)
SK-OV-3
  GI50: 15.8 µM (inactive)
SNB-19
  GI50: 10.1 µM (inactive)
SNB-75
  GI50: 16.4 µM (inactive)
TK-10
  GI50: 12.7 µM (inactive)

## O=C(/C=C/c1ccccc1)CSc1nc[nH]n1
CAKI-1
  GI50: > 100 µM (inactive)
COLO 205
  GI50: > 100 µM (inactive)
HCC 2998
  GI50: > 100 µM (inactive)
HCT-116
  GI50: 33 µM (inactive)
HL-60
  GI50: 45.9 µM (inactive)
K562
  GI50: 46.8 µM (inactive)
MOLT-4
  GI50: 63.2 µM (inactive)
NCI-H522
  GI50: 30.5 µM (inactive)
OVCAR-4
  GI50: > 100 µM (inactive)
SF-295
  GI50: 81.1 µM (inactive)
SF-539
  GI50: > 100 µM (inactive)
SK-MEL-2
  GI50: > 100 µM (inactive)
SK-OV-3
  GI50: > 100 µM (inactive)
SNB-19
  GI50: > 100 µM (inactive)
SNB-75
  GI50: 14.3 µM (inactive)
TK-10
  GI50: > 100 µM (inactive)

## CCCC1(CCC)c2cc(/C=N\O)ccc2-c2ccc(-c3ccc(C(C)(C)C)cc3)cc21
CAKI-1
  GI50: > 100 µM (inactive)
COLO 205
  GI50: > 100 µM (inactive)
HCC 2998
  GI50: 42.6 µM (inactive)
HCT-116
  GI50: 22.6 µM (inactive)
HL-60
  GI50: 20.7 µM (inactive)
Hs-578T
  GI50: 88.3 µM (inactive)
K562
  GI50: 45.7 µM (inactive)
MOLT-4
  GI50: 23.4 µM (inactive)
OVCAR-4
  GI50: > 100 µM (inactive)
SF-295
  GI50: 33.2 µM (inactive)
SF-539
  GI50: > 100 µM (inactive)
SK-MEL-2
  GI50: 29 µM (inactive)
SK-OV-3
  GI50: > 100 µM (inactive)
SNB-19
  GI50: > 100 µM (inactive)
SNB-75
  GI50: 67.1 µM (inactive)
TK-10
  GI50: 39 µM (inactive)

## COc1ccc(C2C3=CONC3CC3CCCCC32)cc1 (centres undefined)
CAKI-1
  GI50: > 100 µM (inactive)
HCC 2998
  GI50: 18.5 µM (inactive)
HCT-116
  GI50: 29.8 µM (inactive)
HL-60
  GI50: 29.6 µM (inactive)
K562
  GI50: 39.4 µM (inactive)
MDA-MB-435
  GI50: 47.9 µM (inactive)
MOLT-4
  GI50: 18.9 µM (inactive)
NCI-H522
  GI50: 29.6 µM (inactive)
OVCAR-4
  GI50: 50.4 µM (inactive)
SK-MEL-2
  GI50: 33.8 µM (inactive)
SNB-19
  GI50: 92.7 µM (inactive)
SNB-75
  GI50: > 100 µM (inactive)
TK-10
  GI50: > 100 µM (inactive)

## CCN(CC)CCN1CCN=C2c3cc(OC)ccc3Nc3c([N+](=O)[O-])ccc1c32
CAKI-1
  GI50: 1.93 µM (inactive)
COLO 205
  GI50: 1 µM (active)
HCC 2998
  GI50: 0.555 µM (active)
HL-60
  GI50: 0.519 µM (active)
K562
  GI50: 0.575 µM (active)
MDA-MB-435
  GI50: 1.28 µM (inactive)
MOLT-4
  GI50: 0.288 µM (active)
OVCAR-4
  GI50: 1.07 µM (active)
SF-295
  GI50: 1.82 µM (inactive)
SK-OV-3
  GI50: 2.52 µM (inactive)
SNB-75
  GI50: 1.95 µM (inactive)
TK-10
  GI50: 2.8 µM (inactive)

## Cc1cccc(CP(Cc2cccc(C)c2)CC2(Cp3c4ccccc4c4ccccc43)COC2)c1
CAKI-1
  GI50: 9.75 µM (inactive)
COLO 205
  GI50: 0.249 µM (active)
HCC 2998
  GI50: 12.3 µM (inactive)
HCT-116
  GI50: 0.252 µM (active)
HL-60
  GI50: 0.332 µM (active)
K562
  GI50: 1.33 µM (inactive)
MDA-MB-435
  GI50: 5.71 µM (inactive)
MOLT-4
  GI50: 0.662 µM (active)
NCI-H522
  GI50: 1.18 µM (inactive)
OVCAR-4
  GI50: 13.3 µM (inactive)
SF-295
  GI50: 2.18 µM (inactive)
SF-539
  GI50: 12.1 µM (inactive)
SK-MEL-2
  GI50: 7.23 µM (inactive)
SK-OV-3
  GI50: > 100 µM (inactive)
SNB-19
  GI50: 5.96 µM (inactive)
SNB-75
  GI50: 0.501 µM (active)

## CC(=O)c1c(O)ccc2c1c1c(n2C)C(=O)c2ccccc2C1=O
CAKI-1
  GI50: 5.24 µM (inactive)
COLO 205
  GI50: > 100 µM (inactive)
HCC 2998
  GI50: 0.0114 µM (active)
HCT-116
  GI50: 3.01 µM (inactive)
HL-60
  GI50: > 100 µM (inactive)
Hs-578T
  GI50: 2.82 µM (inactive)
K562
  GI50: > 100 µM (inactive)
MOLT-4
  GI50: 4.42 µM (inactive)
SF-295
  GI50: 6.92 µM (inactive)
SF-539
  GI50: 3.08 µM (inactive)
SK-MEL-2
  GI50: > 100 µM (inactive)
SK-OV-3
  GI50: 2.84 µM (inactive)
SNB-19
  GI50: 7.28 µM (inactive)
SNB-75
  GI50: 2.32 µM (inactive)
TK-10
  GI50: 3.47 µM (inactive)

## CN1CCN(/C(N)=C(\C#N)C(=O)Nc2ccc(Cl)cc2)CC1
CAKI-1
  GI50: 79.8 µM (inactive)
COLO 205
  GI50: 18.7 µM (inactive)
HCC 2998
  GI50: 59.6 µM (inactive)
HCT-116
  GI50: 41.6 µM (inactive)
K562
  GI50: 23 µM (inactive)
MDA-MB-435
  GI50: 37.5 µM (inactive)
MOLT-4
  GI50: 54.8 µM (inactive)
SF-295
  GI50: 75.7 µM (inactive)
SF-539
  GI50: > 100 µM (inactive)
SK-MEL-2
  GI50: 32.7 µM (inactive)
SK-OV-3
  GI50: > 100 µM (inactive)
SNB-19
  GI50: > 100 µM (inactive)
SNB-75
  GI50: > 100 µM (inactive)

## COc1cc(-c2cc(-c3cc([N+](=O)[O-])c(/C=N/NC(=O)c4ccncc4)o3)ccc2OC)ccc1C
CAKI-1
  GI50: > 100 µM (inactive)
COLO 205
  GI50: > 100 µM (inactive)
HCC 2998
  GI50: > 100 µM (inactive)
HL-60
  GI50: > 10 µM (inactive)
K562
  GI50: > 100 µM (inactive)
NCI-H522
  GI50: > 100 µM (inactive)
OVCAR-4
  GI50: > 100 µM (inactive)
SF-295
  GI50: > 100 µM (inactive)
SF-539
  GI50: > 100 µM (inactive)
SK-MEL-2
  GI50: > 100 µM (inactive)
SK-OV-3
  GI50: > 100 µM (inactive)
SNB-19
  GI50: > 100 µM (inactive)
SNB-75
  GI50: > 100 µM (inactive)
TK-10
  GI50: > 100 µM (inactive)

## O[C@H]1[C@H](O)[C@@H](O)[C@H](O)[C@@H](O)[C@H]1O [INOSITOL]
COLO 205
  GI50: > 1000 µM (inactive)
HCC 2998
  GI50: > 1000 µM (inactive)
HCT-116
  GI50: > 1000 µM (inactive)
Hs-578T
  GI50: > 1000 µM (inactive)
K562
  GI50: > 1000 µM (inactive)
MDA-MB-435
  GI50: > 1000 µM (inactive)
MOLT-4
  GI50: 154 µM (inactive)
OVCAR-4
  GI50: > 1000 µM (inactive)
SF-539
  GI50: > 1000 µM (inactive)
SK-MEL-2
  GI50: > 1000 µM (inactive)
SK-OV-3
  GI50: > 1000 µM (inactive)
SNB-19
  GI50: > 1000 µM (inactive)
SNB-75
  GI50: 0.1 µM (active)
TK-10
  GI50: > 1000 µM (inactive)
